Literature values, collected in article PMC4682187, “Fusarinine C, a novel siderophore‐based bifunctional chelator for radiolabeling with Gallium‐68” (Journal of Labelled Compounds & Radiopharmaceuticals, 2015).

What was measured:
[1] = ^68Ga complex of TAFC
Description: To evaluate this hypothesis, a RGD peptide targeting the ...

[2] = dilution of DFO; at nanomolar level (<50 nM) DFO does not act as a good chelating agent for gallium
Description: Caraco et al. reported that dilution of DFO, an acyclic analogue of FSC, could cause the breakdown of the ^67Ga^3+–DFO complex.

Structure (SMILES)	Metabolic stability [1]	Stability of the complex on dilution [2]
CC(=O)NC1CCCN(O)C(=O)/C=C(/C)CCOC(=O)C(NC(C)=O)CCCN(O)C(=O)/C=C(/C)CCOC(=O)C(NC(C)=O)CCCN(O)C(=O)/C=C(/C)CCOC1=O (centres unmarked) [TAFC, triacetylfusarinine]	excellent metabolic stabilities	
CC(=O)N(O)CCCCCNC(=O)CCC(=O)N(O)CCCCCNC(=O)CCC(=O)N(O)CCCCCN [^67Ga^3+–DFO complex, desferoxamine B, metal not drawn]		breakdown
